Measured values: the METLIN SMRT retention time set (Domingo-Almenara et al. 2019)

Assay: gradient 5% acetonitrile 3 min, to 50% in 2 min, to 85% in 15 min, held 3 min, 100 µL/min
Conditions: column: Zorbax Extend-C18 2.1 x 50 mm; eluents: water / acetonitrile, 0.1% formic acid
Procedure, shortened: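 Values are retention times taken from adduct peaks that software picked and an analyst inspected. The pure standards were run as mixtures of ~100 molecules on HPLC linked to a quadrupole time-of-flight mass spectrometer, in positive and negative ionization mode. A Zorbax Extend-C18 column (2.1 × 50 mm, 1.8 μm) was used at 100 μL/min with water and acetonitrile, each including 0.1% formic acid.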

| Compound | RP-LC retention time |
| --- | --- |
| Clc1ccccc1Cc1nc(-c2ccc(OC3CCNC3)cc2)no1 (stereo not drawn) | 704 s |
| CC(=O)N1CCc2cc(N3CC(C(=O)Nc4ccccc4F)CC3=O)ccc21 (stereo not drawn) | 690 s |
| CC(C)C(=O)Nc1cnc(-c2ccccc2)nc1 | 814 s |
| CCOc1ccc2nc(NC(=O)Cc3csc4nc(-c5ccc(C)c(C)c5)cn34)sc2c1 | 980 s |
| Cc1nc(C2CCCN2Cc2ccc(C)s2)n[nH]1 (stereo not drawn) | 554 s |
| O=C(NC1CCN(c2cc(-c3ccc(Cl)cc3)[nH]n2)C1)c1cccc(Br)c1 (stereo not drawn) | 870 s |
| O=C(Cc1cccs1)N1CCC(Nc2ncnc3c2CCC3)CC1 | 590 s |
| Cc1cccc(-c2nc3ccccn3c2NC(=O)Nc2ccccc2F)c1 | 695 s |
| Cc1ccc(C)c(Nc2c(-c3ccccc3)nc3ncccn23)c1 | 815 s |
| CCCNC(=O)CSc1ccc(-n2nc3c(c2C)CCC3)nn1 | 865 s |
| CCN(CC)CCNc1ccc(-c2nc(-c3ccc(F)cc3)no2)nn1 | 667 s |
| Cc1cc(Cl)ccc1S(=O)(=O)N1CCc2nn(CC(C)C)c(=O)n2CC1 | 919 s |
| Cc1nc2c(sc3nc(-c4ccccc4)ccc32)c(=O)n1CC(=O)Nc1ccc(F)cc1 | 1040 s |
| COc1cccc(CN2CCCn3nc(-c4cccc(OC)c4)cc3C2)c1 | 561 s |
| Cn1nc(C(=O)Nc2ccccc2F)cc1C(F)(F)F | 951 s |
| Cc1ccc(-c2nc(Cn3nnc(C(=O)NCc4ccco4)c3C)c(C)o2)cc1 | 1000 s |
| CCN1c2cc(F)ccc2C(=O)NC12CCN(C(=O)c1cccc(F)c1)CC2 | 791 s |
| Cc1ccc(-c2nc(-c3ccc4c(c3)ncn4CCC(=O)N3CCCC3)no2)s1 | 753 s |
| COC(=O)c1ccc(C(=O)OC)c(NC(=O)c2cnc3n(c2=O)CCS3)c1 | 700 s |
| Cc1ccc(F)cc1S(=O)(=O)N1CCn2c(nnc2C2CCN(C(C)C)C2)C1 (stereo not drawn) | 608 s |
| CSc1ncccc1C(=O)N(Cc1ccsc1)Cc1ccccn1 | 690 s |
| CN1C(=O)CCC2(CNC(=O)NCCc3ccccc3)CCCC=C12 (stereo not drawn) | 763 s |
| CCC1CN2C=NC(N3CCN(C(=O)c4ccc5c(c4)OCO5)CC3)=CC2=N1 (stereo not drawn) | 609 s |
| COCc1nncn1C1CN(C(=O)Cc2cc(OC)cc(OC)c2)C1 | 620 s |

| Compound | RP-LC retention time |
| --- | --- |
| Cc1ccc(Cl)c(Nc2ccccc2C(=O)O)c1Cl | 1050 s |
| O=C(NC1CCCC1)c1cccn1Cc1noc(-c2ccc(Cl)cc2)n1 | 1100 s |
| COC(=O)c1c(-c2ccc(Cl)cc2)noc1NCCN1CCN(C)CC1 | 660 s |
| O=c1c2sccc2n(Cc2nc(-c3ccc(C(F)(F)F)cc3)no2)c(=O)n1CCc1ccccc1 | 1270 s |
| CCCn1c(=O)sc2cc(S(=O)(=O)N3CCC(C(=O)NC(C)CC)CC3)ccc21 (stereo not drawn) | 853 s |
| Cc1cc(C2CCCN2C(=O)Nc2ccc(C)c(Cl)c2)no1 (stereo not drawn) | 906 s |
| COC(=O)C1=CN(c2cc(Cl)c(OC)cc2OC)c2ccccc2S1(=O)=O | 903 s |
| CCOC(=O)Nc1cccc(C(F)(F)F)c1 | 890 s |
| O=S(=O)(c1cccc2nsnc12)N1CCCC(Cc2noc(-c3cnccn3)n2)C1 (stereo not drawn) | 858 s |
| COc1ncccc1CNC(=O)CCc1ccccc1 | 738 s |
| Cc1ccc(C(=O)NCCc2nc3cccnc3n2C)c(C)c1 | 623 s |
| O=C(CCSc1ccccc1)N1CC(c2nc(-c3cccc(Cl)c3)no2)C1 | 1020 s |
| COc1ccc(-c2csc3c(=O)n(Cc4ccccn4)cnc23)cc1 | 815 s |
| CCN(CC)C(=O)c1ccc2nc(-c3ccc(C)c(C)c3)cn2c1 | 669 s |
| O=C(Nc1cccc(Br)c1)N1CCC(N2CCN(Cc3ccccc3)C2=O)CC1 | 847 s |
| CCc1cccc(NC(=O)Cn2c(N)nc(C)cc2=O)c1 | 618 s |
| CC(C)=C(c1ccc(Cl)cc1)c1c(N)ncnc1N | 705 s |
| O=C(NCc1ccco1)C1CCN(c2nnc3ccc(C(F)(F)F)cn23)CC1 | 715 s |
| O=C(Nc1ccc(F)c(Cl)c1)C1CCCN(c2ccnc(-c3ccc(F)cc3)n2)C1 (stereo not drawn) | 780 s |
| O=C(NCc1ccc(F)cc1)C1CCc2nc(N3CCCCC3)ncc2C1 (stereo not drawn) | 678 s |
| O=C(NCc1ccco1)N1CCCn2nc(-c3cccc(Cl)c3)cc2C1 | 854 s |
| O=C(Nc1cc(-c2cccs2)nn1CCO)C1(c2ccccc2)CCOCC1 | 734 s |
| CC1CCCN(C(=O)c2cc3c(s2)N(C)CCC3)C1 (stereo not drawn) | 976 s |
| Cc1ccc2c(c1)N(S(C)(=O)=O)CCC(C(=O)Nc1ccc(Br)cc1)O2 (stereo not drawn) | 1020 s |

| Compound | RP-LC retention time |
| --- | --- |
| COc1ccccc1C(=O)Nc1cnc(N2CCCC2)nc1 | 731 s |
| O=C(c1cc2c(s1)CCCC2)N1CCCN(c2nnc3ccc(Cl)cn23)CC1 | 863 s |
| O=C(Cc1cccc2ccccc12)Nc1cc(-c2ccccn2)no1 | 878 s |
| O=C(NCc1ccccc1C(F)(F)F)c1ccc2ncnc(N3CCCC3)c2c1 | 692 s |
| CC(=O)Oc1ccccc1C1=NN(C(C)=O)C(c2cccc(Br)c2)O1 (stereo not drawn) | 1040 s |
| COc1c(C(=O)NCc2ccccc2C)sc2cccc(F)c12 | 1130 s |
| NC1=NC(=O)/C(=C/c2ccccc2OCC(=O)Nc2ccc(F)cc2)S1 | 660 s |
| CCCc1cc(C2CCCN2C(=O)c2ccc(OC)c(OC)c2)no1 (stereo not drawn) | 793 s |
| Cc1ccc(CNC(=O)c2ccc3ncnc(N4CCCCC4)c3c2)o1 | 637 s |
| Cc1ccc(CNC(=O)c2ncn3c2C(=O)N(C2CC2)C(C)(C(=O)NC2CCCC2)C3)cc1 (stereo not drawn) | 770 s |
| CC(Oc1ccccc1Cl)C(=O)Nc1ccnn1Cc1cccs1 (stereo not drawn) | 913 s |
| O=C(NC1CC1)c1cc2cc(Br)ccc2[nH]1 | 817 s |
| COC(=O)c1ccccc1NS(=O)(=O)c1ccc(Br)cc1 | 1030 s |
| CCn1cc(-c2nc(CC(=O)Nc3ccc(F)cc3C)cs2)c2cccnc21 | 902 s |
| CCN1C(=O)C(C)(C(=O)NCc2ccccc2OC)Oc2cccnc21 (stereo not drawn) | 843 s |
| COc1cccc2sc(N3CCCCC3)nc12 | 821 s |
| CSc1ccc(-c2nc3cnccn3c2Nc2ccc(C)cc2C)cc1 | 644 s |
| CCn1nccc1-c1cccc(-c2noc(-c3ccc(OC)cc3C)n2)c1 | 1300 s |
| Cc1noc(C2CCCCN2C(=O)c2cc(-c3ccccc3)n[nH]2)n1 (stereo not drawn) | 796 s |
| CCOC(=O)CNC(=O)NC(C)C(=O)N1CCc2ccccc21 (stereo not drawn) | 687 s |
| Cc1c(Cl)cccc1NC(=O)NCCc1cn(CC(C)C)c2ncccc12 | 902 s |
| O=C(NCc1ccco1)C1(c2ccc(F)cc2)CC1 | 788 s |
| CCCCn1c(=O)c2ccccc2n(Cc2nc(-c3ccc4c(c3)OCO4)no2)c1=O | 1130 s |
| c1ccc2c(N3CCCCCC3)nnc(-c3nc(C4CC4)no3)c2c1 | 895 s |

| Compound | RP-LC retention time |
| --- | --- |
| CN1CC[C@@]2(C)c3cc(OC(=O)Nc4ccccc4)ccc3N(C)[C@@H]12 | 718 s |
| COc1cccc(C(=O)N2CCC3(CC2)N=C(c2ccccc2)NO3)c1 | 728 s |
| CCn1cc(-c2nc(C)c(C(=O)Nc3ccc(F)cc3)s2)c2cccnc21 | 999 s |
| Cn1cnc(-c2cc3nccc(Oc4ccc(NC(=S)NC(=O)Cc5ccccc5)cc4F)c3s2)c1 | 862 s |
| CN(C)CCNC(=O)c1cc(S(=O)(=O)N2CCOCC2)ccc1Cl | 563 s |
| COc1ccc(CCNC(=O)c2nc(CCS(=O)(=O)c3ccccc3)no2)cc1OC | 754 s |
| Cc1ccc(S(=O)(=O)N2CCC(N3CCN(Cc4ccccc4)C(=O)C3=O)CC2)cc1Cl | 799 s |
| O=C(NCc1ccccc1)c1ncccn1 | 609 s |
| O=C(c1ccccc1)N1CCN(c2nc(CN3CCOCC3)cs2)CC1 | 852 s |
| COc1ccccc1NC(=O)NCCC1CCN(S(=O)(=O)c2ccccc2)CC1 | 910 s |
| Cn1cc(-c2ccc(F)cc2)cc1C(=O)NC1CC1 | 847 s |
| O=C(C1CCCN(c2ncnc3c2nc2n3CCCCC2)C1)N1CCN(c2ccccn2)CC1 (stereo not drawn) | 592 s |
| COc1cc(Cl)ccc1C(=O)Nc1ccc2c(c1)Sc1ncccc1C(=O)N2C | 915 s |
| O=C(Cn1cnc2nc3c(cc2c1=O)CCCC3)Nc1ccccc1F | 703 s |
| Cc1noc(C)c1C1CCCN1C(=O)Cc1ccccc1F (stereo not drawn) | 736 s |
| CCn1cc(S(=O)(=O)NCc2ccc(C)cc2)c2cccnc21 | 900 s |
| O=C(Cc1ccc(F)cc1)NCC1CC(=O)N(Cc2ccc(F)cc2)C1 (stereo not drawn) | 871 s |
| CCOC(=O)c1c(C)[nH]c(C(=O)N2CCCC(C(=O)NCCc3ccc(OCC)cc3)C2)c1C (stereo not drawn) | 866 s |
| O=S(=O)(c1ccc(-c2cc(C(F)(F)F)on2)s1)N1CCN(c2ccccn2)CC1 | 883 s |
| COc1ccc(Cl)cc1C(=O)N1CCN(c2cc(C)nc(N3CCOCC3)n2)CC1 | 644 s |
| O=C(NCc1ccc2c(c1)OCO2)C1COC2(CCN(C(=O)C3CC3)CC2)N1C(=O)c1ccccc1 (stereo not drawn) | 692 s |
